“Also recorded” adds a separate entry of the source.
How the values were obtained:
[1] = test system: MYCN MR signature; test: RNASeq with VIPER analysis of the MYCN MR signature; type: cell-based, human; conditions: SK-N-Be2 cells
Method: To uncover changes in gene expression that underpin responses to pomiferin and isopomiferin, RNASeq analysis of SK-N-Be2 cells was performed following treatment with the two active prenylated isoflavonoids as well as a null analog that served as a negative control. SK-N-Be2 cells were treated with either 3 μM or 10 μM of isopomiferin or pomiferin and sampled after 3 h and 6 h. […] By comparing the active to the null analogs, downstream analyses can focus on changes in gene expression associated with the MYCN signature.
Intriguingly, only six MRs were suppressed by pomiferin and isopomiferin, while being unaffected by the null analog dimethyl pomiferin (FIG. 20B).

[2] = test system: cancer cell lines and non-transformed cells; conditions: Darji et al. 2013; Son et al. 2007; cited from earlier work
[3] = Stability in mouse plasma; type: in vitro ADME; conditions: 4 h incubation, 20 μM
Method: Mouse plasma was diluted with 100 mM PBS buffer at 7.4 pH and at a 1:1 ratio, and warmed to 37° C. Test compounds were added to the plasma solution at 20 μM and incubated for the indicated time point. Reactions was quenched by aliquoting 15 μL of solution into 60 μL ice-cold acetonitrile containing an internal standard. Compounds were quantified by LC-MS, as detailed above.

[4] = test system: pAKT (Ser473); test: pAKT (Ser473) western blot in SK-N-Be2 cells; type: cell-based, human; conditions: growth factor induced
Excerpt: (§1) Membranes were blocked using Odyssey Blocking Buffer (LI-COR) for 1 hr at room temperature. […] Primary antibodies used in these studies include: MycN (CST; 1:500 dilution), Actin (SCBT; 1:2000 dil.), cMYC (CST; 1:500 dil.), pAKT (S473; CST; 1:500 dil.), AKT (CST; 1:2000), pP70 (T389; CST; 1:1000) P70 (CST; 1:1000).
We first tested whether isopomiferin disrupted […] signaling in NBL by treating SK-N-Be2 cells to isopomiferin and blotting for pAKT abundance. Treatment with […] (EGF) induces pAKT1 through mTOR signaling. We tested whether isopomiferin had the ability to disrupt mTOR signaling by pre-treating cells with isopomiferin for 2 hrs, following which cells were treated with 10 ng/ml EGF for 30 minutes to induce pAKT1. […] Total AKT abundance was used as a loading control to confirm that isopomiferin was simply not suppressing expression of AKT abundance.

[5] = test system: MycN^AMP regulatory module (Master Regulators, TCM); test: PLATE-Seq with VIPER analysis: reversion of the MycN^AMP master regulator module; type: cell-based, human; conditions: SK-N-Be2 cells, IC20, 24 hrs
Excerpt: Reads were mapped against the human reference genome version Grch38 using the STAR aligner, and used the variance stabilizing transformation from the DESeq2 package for R to normalize each plate. Next, we corrected for batch effect due to having compounds replicates on separate plates. We used the function combat from the sva package for R to compute the batch-corrected normalized gene expression, and fitted a linear model for each compound against the set of DMSO controls on each plate (6 wells per plate per DMSO-treated cells). We used the limma package for R to fit the linear model and to compute p-values and moderated t-statistics for each gene. For each compound, we used a vector of these statistics to generate a gene expression profile of z-scores representing the compound effect as differential between post- and pre-treatment.
Each compound gene expression profile was analyzed using the VIPER algorithm (Alvarez et al. 2016) with TARGET and NRC NBL interactomes, reverse-engineered as described in (Rajbhandari et al. 2018), resulting in two protein activity profiles for each compound that were integrated using Stouffer's z-score method.

[6] = test system: cMyc; test: Western blot of cMyc in A549 cells; type: cell-based; conditions: A549 cells, 5, 10, or 15 μM, 24 hrs
Excerpt: as §1
There are some shared upstream regulatory pathways that govern both MycN and cMyc expression, including mTOR signaling cascade (Guertin and Sabatini 2007; Hay and Sonenberg 2004). We hypothesized that isopomiferin could disrupt the expression of cMyc as well. We identified a cMyc-expressing lung cancer line, A549, and treated cells with 5, 10, or 15 μM isopomiferin for 24 hrs (FIG. 3D).

[7] = test system: MYC targets gene set; test: GSEA of Cancer Hallmarks gene sets from PLATE-Seq profiles; type: cell-based, human; conditions: SK-N-Be2 cells, 3.3 μM and 10 μM, 6 h and 24 h
Excerpt: We next performed gene set analysis using PLATE-Seq expression profiling by binning transcripts according to the Cancer Hallmarks gene sets found at the molecular signatures database. Curated by the Broad Institute, these fifty hallmark pathway sets represent well defined cancer processes or states associated with cancer malignancies. […] Given that isopomiferin disrupted the MycN^AMP regulatory module, it was expected that this target would be suppressed by isopomiferin. We sought to understand how the compound is affecting cells by assessing whether any other pathways are affected by the compound. […] E2F […] regulators act in a feedback loop with MycN and also regulate cell cycle progression (Strieder and Lutz 2003; Li et al. 2014), so this is an interesting finding that will be further investigated. MycN enables cancer cells to evade the immune system by suppressing antigens that can act as immune attractants necessary for detection and destruction of cancer cells (Brandetti et al. 2017; Topper et al. 2017). It is possible that enrichment of the “Inflammatory Response” gene set is a result of desuppression of these targets as a result of MycN inhibition.
We sought to investigate biological pathways affected by isopomiferin by performing pathway enrichment analysis on a set of 50 hallmarks of cancer. […]

SMILES | effect on the MYCN MR signature (VIPER of RNASeq) [1] | potency in transformed cells relative to non-transformed cells [2] [fold] | compound remaining in mouse plasma [3] | pAKT accumulation / AKT (Ser473) phosphoactivation [4] | pAKT accumulation / AKT (Ser473) phosphoactivation ([4]; listed as Isopomiferin) | reversion of the MR regulatory module / TCM (VIPER of PLATE-Seq) [5] | cMyc protein abundance [6] | Cancer Hallmarks gene set enrichment (MYC Targets, E2F Targets, G2M Checkpoint) [7]
CC(C)=CCc1c2c(c3occ(-c4ccc(O)c(O)c4)c(=O)c3c1O)C=CC(C)(C)O2 [pomiferin] | had the strongest effect on the MYCN MR signature | > 10 | approximately 75% | – | – | – | – | –
CC1(C)C=Cc2c(c3c(c4c(=O)c(-c5ccc(O)c(O)c5)coc24)OC(C)(C)CC3)O1 [isopomiferin] | – | – | – | blocked pAKT accumulation in presence of EGF treatment | inhibited phosphorylation of P70^S6K, as well as the IGF1-induced phosphoactivation of AKT (Ser473) | the top compound of the 90 tested; also recorded: had the strongest effect on the TCM | suppressed cMyc protein abundance in A549 in a dose dependent manner | suppressed the MYC targets gene set; also recorded: suppressed by isopomiferin treatment in a time- and dose-dependent manner

Source: patent publication US20220119399A1, “COMPOUNDS AND COMPOSITIONS THAT CAUSE MYCN AND/OR CMYC DEGRADATION AND METHODS OF USE THEREOF” (THE TRUSTEES OF COLUMBIA UNIVERSITY IN THE CITY OF NEW YORK, priority 2018, published 2022)
